Test results: patent US20020150990A1, “Hepatitis C virus peptides” (priority 1992, published 2002)
Ends that are not written are not given here.

System: antibodies against HCV
Assay: PEPSCAN analysis of overlapping octameric peptides of the HCV core protein N-terminal region with HCV-seropositive sera
Assay type: binding, human
Settings: read at 405 nm
Excerpt: The N-terminal 97 amino acid residues of HCV Core protein SEQ ID NO: 8 was mapped with PEPSCAN analysis. This process involved the serological analysis of sequentially overlapping peptides which spanned the region of interest, to identify epitopic domains. Ninety overlapping octameric peptides were synthesized on polypropylene pin supports according to the manufacturer's instructions (Cambridge Research Biochemicals), such that each peptide overlapped with the preceding sequence by the seven N-terminal residues, and with the subsequent peptide by the seven C-terminal residues. Serum or IgG purified from the serum of individuals confirmed to be seropositive for HCV were used to screen the peptides.
The assay procedure followed was performed basically as described in the manufacturers instruction manual. The time and temperature of the test antibody incubation differed from that prescribed, thereby decreasing the time taken for each assay.
Sera: A total of 16 sera were assayed by PEPSCAN. These consisted of 12 sera from paid U.S. Donors which were identified as being positive for antibodies against HCV in routine screening at the site of donation. The remaining four sera were from patients diagnosed as having non-A non-B hepatitis, and which were subsequently shown to contain antibodies to HCV. Sera were screened either as the crude serum fraction, or as a caprylic acid preparation. Caprylic acid purification of IgG from the sera was performed as described by Stienbuch and Audran (1969) Arch. Biochem. Biophys. 134, 279-284.
Assay: The assay format involves sequentially incubating the various pins in microwell plates containing blocking, test antibody, conjugate, and substrate solutions. The immune complex builds up on the pin with the enzyme labelled conjugate being immobilized on the bound anti-peptide antibody from the test serum. When the pin is then immersed in substrate, the enzyme brings about the colour change which is used to quantify the amount of anti-peptide antibody bound.
Blocking: Pins are immersed in 200 μl of Supercocktail (1% Ovalbumin, 1% bovine serum albumin in 0.15M phosphate buffered saline pH 7.2—0.1% Tween 20) and left to stand at room temperature for 1 hour.
Test antibody: The test antibody is diluted between 1/200 (IgG) and 1/1000 (serum) in supercocktail. The pins are then stood in this solution (175 μl/well) at 37° C. for 1 hour. After this incubation the pins are washed four times in 0.15M phosphate buffered saline pH 7.2—0.05% Tween 20, each at room temperature for 10 minutes.
Conjugate: Rabbit anti-human IgG coupled to horseradish peroxidase is diluted 1/1000 in supercocktail. The peptide bearing pins are then stood in this solution at room temperature for 1 hour. Once again the pins are then washed four times as above.
Substrate: The substrate solution is made up fresh for each assay. To 100 ml of 0.1M phosphate, 0.08M citrate buffer pH 4.0 is dissolved 50 mg of 2,2′-AZINO-bis (3-ethylbenzthiazo-linsulphonic acid (ABTS) and 0.3 μl/ml 30% hydrogen peroxide is added. The pins are immersed in the wells containing substrate solution (150 μl/well) and incubated at room temperature in the dark. Once sufficient colour has developed the reaction is stopped by removing the pins. The plates are then read immediately in a spectrophotometric plate reader at a wavelength of 405 nm. The absorbance values are then plotted against pin number. The epitopic domains are then defined as the continuous sequence of amino acids common to all positive pins in the domain i.e.

| Sequence | Absorbance Units for different sera (serum 65221) [Absorbance Units] | Absorbance Units for different sera (serum 65234) [Absorbance Units] | Absorbance Units for different sera (serum 65241) [Absorbance Units] | Absorbance Units for different sera (serum 65276) [Absorbance Units] | Absorbance Units for different sera (serum L) [Absorbance Units] |
| --- | --- | --- | --- | --- | --- |
| GGGQIVGG (pin support) [overlapping octameric peptide of HCV core protein on pin support] | 137 | 134 | 121 | 127 | 121 |
| GGQIVGGV (pin support) [overlapping octameric peptide of HCV core protein on pin support] | 323 | 179 | 122 | 119 | 119 |
| GGVYLLPR (pin support) [overlapping octameric peptide of HCV core protein on pin support] | 132 | 344 | 311 | 246 | 191 |
| GPRLGVRA (pin support) [overlapping octameric peptide of HCV core protein on pin support] | 111 | 75 | 60 | 146 | 101 |
| GQIVGGVY (pin support) [overlapping octameric peptide of HCV core protein on pin support] | 216 | 165 | 112 | 128 | 138 |
| GVYLLPRR (also: pin support) [Gly-Val-Tyr-Leu-Leu-Pro-Arg-Arg, overlapping octameric peptide of HCV core protein on pin support] | 613 | 229 | 511 | 350 | 378 |
| IVGGVYLL (pin support) [overlapping octameric peptide of HCV core protein on pin support] | 268 | 186 | 126 | 183 | 158 |
| LLPRRGPR (pin support) [overlapping octameric peptide of HCV core protein on pin support] | 142 | 101 | 129 | 98 | 133 |
| LPRRGPRL (pin support) [overlapping octameric peptide of HCV core protein on pin support] | 97 | 145 | 94 | 139 | 148 |
| PRLGVRAT (pin support) [overlapping octameric peptide of HCV core protein on pin support] | 166 | 88 | 79 | 155 | 115 |
| PRRGPPLG [overlapping octameric peptide of HCV core protein on pin support] | 85 | 109 | 73 | 129 | 110 |
| QIVGGVYL (pin support) [overlapping octameric peptide of HCV core protein on pin support] | 329 | 152 | 125 | 165 | 161 |
| RGPRLGVR (pin support) [overlapping octameric peptide of HCV core protein on pin support] | 168 | 99 | 94 | 167 | 132 |
| RLGVRATR (pin support) [overlapping octameric peptide of HCV core protein on pin support] | 81 | 100 | 180 | 177 | 124 |
| RRGPRLGV (pin support) [overlapping octameric peptide of HCV core protein on pin support] | 145 | 146 | 85 | 150 | 123 |
| VGGVYLLP (pin support) [overlapping octameric peptide of HCV core protein on pin support] | 83 | 235 | 144 | 132 | 169 |
| VYLLPRRG (pin support) [Val-Tyr-Leu-Leu-Pro-Arg-Arg-Gly, overlapping octameric peptide of HCV core protein on pin support] | 769 | 280 | 641 | 440 | 306 |
| YLLPRRGP (pin support) [Tyr-Leu-Leu-Pro-Arg-Arg-Gly-Pro, overlapping octameric peptide of HCV core protein on pin support] | 332 | 177 | 367 | 248 | 242 |
